Source: patent US8940310B2, “Methods of treatment using TLR7 and/or TLR9 inhibitors” (Dynavax Technologies Corporation, priority 2010, dated 2015)
[I] = hypoxanthine (inosine); d = 2'-deoxy (DNA); m = 2'-O-methyl

System: human B-cells
Assay: Human B-cells cultured in the presence of IRPs, IL-6
[1] = Experiment # 1, Max Conc 4.0 uM
[2] = Experiment # 4, Max Conc 4.0 uM
[3] = Experiment # 5, Max Conc 4.0 uM
[4] = Experiment # 6, Max Conc 4.0 uM
[5] = Experiment # 7, Max Conc 4.0 uM

Procedure: For the human B-cell assay, B-cells were purified from total blood cells obtained from healthy donors using magnetic beads (CD19 positive). Cells were resuspended in fresh medium (RPMI 1640 with 10% fetal calf serum, 50 units/mL penicillin, 50 μg/mL streptomycin, and 2 mM glutamine). At 48 hours, supernatants were collected and cytokine levels, IL-6, were measured using immunoassay.
To further investigate the effect of IRPs on B-cell stimulatory activity, a wide variety of IRP sequences were assayed for IL-6, along with positive and negative controls. The experiment was performed as described in Example 1 using doses of IRP of either 4.0 μM or 2.0 μM. The positive control was an immunostimulatory sequence (ISS) with SEQ ID NO:157. […] The results are presented as the average normalized IL-6 response over several experiments.

Row | Substance | Normalized IL-6 Response (Percentage of Positive Control) [2] | Normalized IL-6 Response (Percentage of Positive Control) [3] | Normalized IL-6 Response (Percentage of Positive Control) [4] | Normalized IL-6 Response (Percentage of Positive Control) [5] | other results
1 | 5′-TGC TTG TCC TGG AGI GGT TGT AAG T-3′ (DNA TGCTTGTCCTGGAGNGGTTGTAAGT; DNA, [I] at 15, backbone and methylation of C not given here) [SEQ ID NO:64] | – | – | – | – | Normalized IL-6 Response (Percentage of Positive Control) [1]: 33%; Normalized IL-6 Response (Percentage of Positive Control) (Experiment # 8, Max Conc 2.0 uM): 19%
2 | 5′-UGC TGC TCC TTG AGI GGT TGT (DNA UGCTGCTCCTTGAGNGGTTGT; sugars from the 5' end m3 d18, [I] at 15, backbone not given here) [SEQ ID NO:114] | 40% | 39% | 39% | 40% | –
3 | 5′-UGCTTGTCCTGGAGGGGTTGT (DNA NNNTTGTCCTGGAGGGGTTGT; listed as DNA, chemistry not fully specified) [SEQ ID NO:87] | – | 16% | 12% | – | –
4 | 5′-TGCTCCTGGAGGGGTTGTAAGTTTGT-3′ (DNA TGCTCCTGGAGGGGTTGTAAGTTTGT; DNA, backbone and methylation of C not given here; further chemistry not fully specified) [SEQ ID NO:68] | – | 12% | 6% | – | –
5 | 5′-UGC TGC TCC TTG AGI GGT TGT (DNA UGCTGCTCCTTGAGNGGTTGT; sugars from the 5' end m3 d18, [I] at 15, backbone not given here) [SEQ ID NO:126] | – | – | – | – | Normalized IL-6 Response (Percentage of Positive Control) (Experiment # 11, Max Conc 2.0 uM): 37%
6 | 5′-TGCTGCTCCTGGAGGGGTTGTTTGT-3′ (DNA TGCTGCTCCTGGAGGGGTTGTTTGT; DNA, backbone and methylation of C not given here; further chemistry not fully specified) [SEQ ID NO:57] | – | 22% | 17% | – | –
7 | 5′-TGC TTG TCC TGG AGI GGT GTT GT-3′ (DNA TGCTTGTCCTGGAGNGGTGTTGT; DNA, [I] at 15, backbone not given here) [SEQ ID NO:65] | – | – | – | – | Normalized IL-6 Response (Percentage of Positive Control) [1]: 38%; Normalized IL-6 Response (Percentage of Positive Control) (Experiment # 9, Max Conc 2.0 uM): 21%
8 | 5′-TGCTGCTCCTGGAGGGGTTGT-3′ (DNA TGCTGCTCCTGGAGGGGTTGT; DNA, backbone and methylation of C not given here; further chemistry not fully specified) [SEQ ID NO:60] | 10% | – | – | 10% | –
9 | 5′-TGCTGCTCCTTGAGGGGTTGT-3′ (DNA TGCTGCTCCTTGAGGGGTTGT; DNA, backbone and methylation of C not given here; further chemistry not fully specified) [SEQ ID NO:59] | 12% | – | – | 12% | –
